Converted amounts (≈) assume the structure as drawn. Bounds are passed on as bounds.

The subject of experiment [1] is Leishmania donovani. Description: The compound was evaluated in vitro for its inhibitory affect against Leishmania donovani. The class given is functional. The settings on record: read-out: ED50 (the source's name).
The target of experiment [2] is Trypanothione reductase (Trypanosoma cruzi) (UniProt P28593). Description: The compound was evaluated in vitro for its inhibitory affect against trypanothione reductase. On the set-up: concentration or dose not given beside the values. The settings on record: concentration not given here.
Experiment [3] can be described thus: Cytotoxicity against peritoneal macrophages of female CD1 mice culturing amastigote stages of Trypanosoma cruzi. The experiment is classed as functional. Particulars: Mus musculus.
The nature of experiment [4]: Cytotoxicity against peritoneal macrophages of female CD1 mice culturing amastigote stages of Leishmania donovani. The class given is functional. Particulars: Mus musculus.
The subject of experiment [5] is Trypanosoma cruzi. Description: The compound was evaluated in vitro for its inhibitory affect against Trypanosoma cruzi. Particulars: read-out: ED50 (the source's name). The experiment is classed as functional.
For experiment [6], the system named is Trypanosoma brucei. Description: The compound was evaluated in vitro for its inhibitory affect against Trypanosoma brucei; (0.098 mM Sb). The class given is functional. The settings on record: read-out: ED50 (the source's name).
Experiment [7] concerns Trypanosoma brucei. In words: The compound was evaluated in vitro for its inhibitory affect against Trypanosoma brucei; (0.02 mM Sb). Particulars: read-out: ED50 (the source's name). The experiment is classed as functional.
Experiment [8] deals with Trypanosoma cruzi. Description: The compound was evaluated in vitro for its inhibitory affect against Trypanosoma cruzi; (0.48 mM Sb). The experiment is classed as functional. Particulars: read-out: ED50 (the source's name).
Experiment [9] deals with Leishmania donovani. In words: The compound was evaluated in vitro for its inhibitory affect against Leishmania donovani; (0.55 mM Sb). The class given is functional. The settings on record: read-out: ED50 (the source's name).
The test system of experiment [10] is Trypanosoma brucei. Description: The compound was evaluated in vitro for its inhibitory affect against Trypanosoma brucei; (7.58 mM Sb). The class given is functional. The settings on record: read-out: ED50 (the source's name).
Experiment [11] concerns Leishmania donovani. In words: The compound was evaluated in vitro for its inhibitory affect against Leishmania donovani; (32.6 mM Sb). Particulars: read-out: ED50 (the source's name). The experiment is classed as functional.
For experiment [12], the system named is Trypanosoma brucei. Description: The compound was evaluated in vitro for its inhibitory affect against Trypanosoma brucei; (8.24 mM Sb). The class given is functional. The settings on record: read-out: ED50 (the source's name).
For experiment [13], the system named is Trypanosoma brucei. Description: The compound was evaluated in vitro for its inhibitory affect against Trypanosoma brucei; (9.66 mM Sb). The experiment is classed as functional. Particulars: read-out: ED50 (the source's name).
Experiment [14] has as its system Trypanosoma brucei. Description: The compound was evaluated in vitro for its inhibitory affect against Trypanosoma brucei; (0.03 mM Sb). The settings on record: read-out: ED50 (the source's name). The experiment is classed as functional.
Experiment [15] deals with Trypanosoma cruzi. In words: In vitro inhibitory affect against Trypanosoma cruzi; (32.7 mM Sb). The class given is functional. Particulars: read-out: ED50 (the source's name).
Experiment [16] relates to Trypanosoma brucei. In words: The compound was evaluated in vitro for its inhibitory affect against Trypanosoma brucei; (0.14 mM Sb). The class given is functional. Particulars: read-out: ED50 (the source's name).

Chain of Trypanothione reductase (Trypanosoma cruzi) (P28593 whole entry, looked up): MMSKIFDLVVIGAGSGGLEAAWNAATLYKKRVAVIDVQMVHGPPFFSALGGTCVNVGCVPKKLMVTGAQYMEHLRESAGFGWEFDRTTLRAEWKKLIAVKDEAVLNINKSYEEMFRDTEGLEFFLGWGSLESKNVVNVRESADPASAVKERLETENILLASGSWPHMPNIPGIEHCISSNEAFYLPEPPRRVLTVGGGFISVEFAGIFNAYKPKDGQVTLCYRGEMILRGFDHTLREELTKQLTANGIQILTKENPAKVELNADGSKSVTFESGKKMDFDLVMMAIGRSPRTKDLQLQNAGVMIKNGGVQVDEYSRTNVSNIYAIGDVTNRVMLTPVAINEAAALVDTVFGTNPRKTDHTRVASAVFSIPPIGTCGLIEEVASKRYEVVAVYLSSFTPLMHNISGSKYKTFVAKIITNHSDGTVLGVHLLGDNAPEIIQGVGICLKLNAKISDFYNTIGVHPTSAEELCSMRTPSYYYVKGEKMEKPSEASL

Usually inhibition stands for how much of the control response was suppressed. Regarding `CN(C)CCC/N=C(\S)NCCCc1cccc2c1Oc1c(CCCN/C(S)=N/CCCN(C)C)cccc1C2(C)C`, the EC50 with Leishmania donovani [1] was > 30 µg/mL; in the experiment with Trypanosoma cruzi [5], > 30 µg/mL; with Trypanosoma brucei [6], 0.06 µg/mL (≈ 0.0979 µM). For the same compound, in [2], the inhibition is 52%. The MIC in [3] and in experiment [4] was > 30 µg/mL in each case.

Take `CN(C)CCCNC(=O)c1cc(C(C)(C)C)cc2c1Oc1c(C(=O)NCCCN(C)C)cc(C(C)(C)C)cc1C2(C)C`: the figures for the EC50 in the experiment with Trypanosoma brucei [7], with Trypanosoma cruzi [8] and with Leishmania donovani [9] were 0.01 µg/mL (≈ 0.0173 µM), 0.28 µg/mL (≈ 0.484 µM) and 0.32 µg/mL (≈ 0.553 µM), respectively. In [2], the inhibition is 28.4%. For the same compound, the MIC in experiment [3] and in experiment [4] was > 30 µg/mL each time.

For `CN(C)CCCNCc1cccc2c1Oc1c(CNCCCN(C)C)cccc1C2(C)C`, the results for the EC50 with Leishmania donovani [1], with Trypanosoma brucei [10] and with Trypanosoma cruzi [5] were > 30 µg/mL, 3.32 µg/mL (≈ 7.57 µM) and > 30 µg/mL, respectively. The inhibition in experiment [2] is 13.8%. Moreover, the MIC in experiment [3] and in experiment [4] was > 300 µg/mL throughout.

Regarding `CN(C)CCCNC(=O)CCc1cccc2c1Oc1c(CCC(=O)NCCCN(C)C)cccc1C2(C)C`, the EC50 is 17 µg/mL (≈ 32.6 µM) in the experiment on Leishmania donovani [11], > 30 µg/mL in the experiment with Trypanosoma cruzi [5] and 4.3 µg/mL (≈ 8.23 µM) in the experiment on Trypanosoma brucei [12]. For the same compound, the inhibition in experiment [2] was 58%. The MIC in experiment [3] and in experiment [4] was > 300 µg/mL throughout.

With `CN(C)CCCNC(=O)c1cccc2c1Oc1c(C(=O)NCCCN(C)C)cccc1C2(C)C`, the EC50 in the experiment with Leishmania donovani [1] is > 30 µg/mL; in the experiment on Trypanosoma brucei [13] it was 4.5 µg/mL (≈ 9.64 µM); with Trypanosoma cruzi [5], > 30 µg/mL. Also, in [2], the inhibition turned out to be 40%. Besides, the MIC in [3] and in [4] was > 300 µg/mL throughout.

For `N=C(N)c1ccc(OCCCCCOc2ccc(C(=N)N)cc2)cc1` [PENTAMIDINE], the EC50 in the experiment on Trypanosoma brucei [14] was 0.01 µg/mL (≈ 0.0294 µM).

Take `O=C(Cn1ccnc1[N+](=O)[O-])NCc1ccccc1` [BENZNIDAZOLE]: the EC50 in the experiment with Trypanosoma cruzi [15] stood at 8.5 µg/mL (≈ 32.7 µM).

In the case of `CN(C)CCCNCCCc1cccc2c1Oc1c(CCCNCCCN(C)C)cccc1C2(C)C`, the EC50 in the experiment on Leishmania donovani [1] was > 30 µg/mL; with Trypanosoma cruzi [5], > 30 µg/mL; in the experiment on Trypanosoma brucei [16], 0.07 µg/mL (≈ 0.141 µM). Besides, the inhibition in [2] was determined as 63%. In addition, the MIC in [3] and in experiment [4] was > 30 µg/mL throughout.
